Literature values, collected in patent US20180140592A1, “5-CHLORO-4-HYDROXY-1-METHYL-2-OXO-N-PHENYL-1,2-DIHYDROQUINOLINE-3-CARBOXAMIDE, SALTS AND USES THEREOF” (Teva Pharmaceutical Industries, Ltd., priority 2010, published 2018).

Assays:
[1] = system: acute experimental autoimmune encephalomyelitis (aEAE) model; details: U.S. Pat. No. 6,077,851
relapsing MS = details: Polman et al. 2005
[2] = system: experimental inflammatory/autoimmune animal models; details: EAE, DSS induced colitis, NOD mice, EAN, SLE and others

## CCN(C(=O)c1c(O)c2c(Cl)cccc2n(C)c1=O)c1ccccc1 [Laquinimod, N-ethyl-N-phenyl-1,2-dihydro-4-hydroxy-5-chloro-1-methyl-2-oxoquinoline-3-carboxamide]
[1]
  efficacy in the aEAE model: effective
Relapsing MS
  development of active MRI lesions: reduce development of active MRI lesions
[2]
  therapeutic effect in animal models: demonstrated therapeutic effect
